According to patent publication US20120231497A1, “SELECTIVE ENZYMATIC […] C-TERMINAL TERT-BUTYL ESTERS OF PEPTIDES” (N.V. Organon, priority 2006, published 2012):
Marks after values point to notes of the source that are not given here. Square brackets hold non-standard residues; d marks the D form. * marks the point of attachment. His(Trt) = N[C@@H](Cc1cn(C(c2ccccc2)(c2ccccc2)c2ccccc2)cn1)C(=O)O; Pbf = Cc1c(C)c(S(=O)(=O)*)c(C)c2c1OC(C)(C)C2; code Z = not defined here; Cbz = O=C(OCc1ccccc1)*; Boc = CC(C)(C)OC(=O)*; OtBu = CC(C)(C)O*; tBu = CC(C)(C)*

What was measured:
Format in all cases: biochemical
[1] = target: T1, Alcalase CLEA (Bacillus licheniformis, UniProt P00780); assay: Hydrolysis of tetrapeptide tert-butyl ester by Alcalase CLEA in NMP/buffer (Example 2); conditions: 0.05 mmol, 5 mg Alcalase CLEA, NMP/phosphate buffer pH 8 1:1, 40° C., 17 h
T1 construct: purchased CLEA Technologies B. V., Delft, The Netherlands
T1 sequence (P00780 106-379): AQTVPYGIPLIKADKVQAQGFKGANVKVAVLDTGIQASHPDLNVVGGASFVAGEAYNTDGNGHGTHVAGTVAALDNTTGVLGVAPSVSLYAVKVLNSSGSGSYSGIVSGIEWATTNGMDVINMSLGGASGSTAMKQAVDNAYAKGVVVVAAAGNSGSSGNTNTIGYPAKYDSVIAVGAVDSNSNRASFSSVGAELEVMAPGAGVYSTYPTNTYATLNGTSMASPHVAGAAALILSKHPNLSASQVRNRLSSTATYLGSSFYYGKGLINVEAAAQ
Description: 0.05 mmol of Boc-Gly-Phe-Phe-Leu-OBu^t was dissolved in a thermostated mixture of 2.5 ml NMP and 2.5 ml phosphate buffer 0.1M pH 8. To this solution 5 mg of Alcalase CLEA were added. The reaction mixture was incubated at 40° C. for a total of 17 hours. Substrate conversion is determined by HPLC. The reaction resulted after 17 h in >95% yield of Boc-Gly-Phe-Phe-Leu-OH.

[2] = target: T1, Alcalase CLEA; assay: Identification of peptide substrates susceptible to endopeptidic cleavage (Example 5)
Description: General procedure Alcalase CLEA:
0.1 mmol of each of the tetrapeptides (or tetrapeptide mixtures) were dissolved in 2.5 ml DMF. To this solution 5 mg of enzyme were added along with 2.5 ml phosphate buffer 0.1 M pH 7 and were added to the previous solution. The reaction mixture was incubated at 40° C. Reaction mixtures were analysed after 2 hours and 6 hours by HPLC. In case the reaction had not reached completion additional portions of enzyme [5 mg each] were added at the end of six hours and overnight (approx. 24 hours of reaction). The last aliquot was analysed by LC/MS to verify the presence of the desired compound and of any impurities being Z-Val-Val-X-OH and/or H-X-Leu-OH.

[3] = target: T2, subtilisin A (S. Carlsberg) (Bacillus licheniformis, UniProt P00780); assay: Hydrolysis of C-terminal tert-butyl esters by free subtilisin A (Example 1); conditions: 0.1 mmol peptide, 5 mg enzyme, DMF/phosphate buffer 0.1 M 1:1, 40° C., 2 hours, HPLC
T2 construct: purchased Sigma Aldrich
T2 sequence (P00780 106-379): T1 sequence (P00780 106-379)
Description: (§1) General Procedure Subtilisin A:
0.1 mmol of each of the peptides was dissolved in a thermostated mixture of 2.5 ml DMF and 2.5 ml phosphate buffer 0.1 M pH 7.5 mg of enzyme were added to the peptide solution. The reaction mixture was incubated at 40° C. for a total of two hours. The reaction mixtures were analysed after 2 hours using HPLC.

[4] = target: T1, Alcalase CLEA; assay: Deprotection of model dipeptides by Alcalase CLEA (Example 3); conditions: 0.1 mmol, 5 mg enzyme, 50 v/v % DMF/phosphate buffer pH 7, 40° C., 6 hours
Text: A person skilled in the art can easily identify suitable substrates, for instance by performing a simple test hydrolysis of a selected peptide comprising a C-terminal tert-butyl ester functionality under suitable conditions as described herein before and following conversion e.g. by HPLC techniques. It has been found by hydrolysis of model dipeptides of the general structure Z-Val-X-OBu^t in the presence of Alcalase CLEA and 50% v/v of DMF (see for details Example 3) that the reactivity for these model substrates comprising a C-terminal tert-butyl ester functionality can be divided into four categories:
General Procedure Alcalase CLEA:
(§2) 0.1 mmol of each of the peptides was dissolved in 2.5 ml DMF. To this solution 5 mg of enzyme were added along with 2.5 ml phosphate buffer 0.1M pH 7. The reaction mixture was incubated at 40° C. for a total of six hours. The reaction mixtures were analysed after 6 hours using HPLC and LC/MS.

[5] = target: T3, Subtilisin A (Bacillus licheniformis, UniProt P00780); assay: Deprotection of model dipeptides by Subtilisin A (Example 3); conditions: 0.1 mmol, 5 mg enzyme, 50 v/v % DMF/phosphate buffer pH 7, 40° C., 6 hours
T3 construct: purchased Novozymes
T3 sequence (P00780 106-379): T1 sequence (P00780 106-379)
Description: as §1
as §2, with “DMF.” for “DMF. To this solution”, “dissolved in” for “added along with”, “0.1 M” for “0.1M”, “7 and were added to the peptide solution.” for “7.”

[6] = target: T3, Subtilisin A; assay: Optimization of the amount of enzyme (Example 4); conditions: 2 h
Description: 0.1 mmol of each of the peptides was dissolved in 2.5 ml IDMF. Subtilisin A was dissolved in 2.5 ml phosphate buffer 0.1 M pH 7 and added to the peptide solution. The reaction mixture was incubated at 40° C. The reaction mixtures were sampled at the indicated reaction times and analysed by HPLC. When needed extra portions of enzyme were added at 2-hour intervals.

[7] = target: T1, Alcalase CLEA; assay: Scaling up of the procedure (Example 6); conditions: 1 mmol, 3x25 mg Alcalase CLEA, 50% DMF, pH 7, 40° C., 6 days
Description: To a stirred solution of 606 mg (1 mmol) Z-Val-Trp-Leu-OBu^t in 25 ml DMF 25 mg of Alcalase CLEA were added along with 25 ml of phosphate buffer 0.1 M pH 7. The mixture was stirred at 40° C. The reaction progress was monitored by HPLC. Extra portions of enzyme (25 mg of Alcalase CLEA each) were added after 24 hours and after 48 hours. After 6 days the reaction was stopped. The reaction mixture was acidified to pH 2 and DMF was evaporated. The product was extracted with ethyl acetate. The organic layer was dried using sodium sulphate, concentrated in vacuo and the final product precipitated from heptane.

[8] = 48 h, extra 5 mg enzyme portions after 6 h and approx. 24 h
[9] = 24 h, extra 5 mg enzyme after 6 h
[10] = 2 h, 5 mg Alcalase CLEA, 50% DMF, pH 7, 40° C.

Boc-Gly-Phe-Phe-Leu-OBu^t (Boc-GFFL-OtBu; SMILES CC(C)C[C@H](NC(=O)[C@H](Cc1ccccc1)NC(=O)[C@H](Cc1ccccc1)NC(=O)CNC(=O)OC(C)(C)C)C(=O)OC(C)(C)C)
yield of Boc-Gly-Phe-Phe-Leu-OH (substrate conversion by HPLC) [1]: > 95%

Cbz-VVE(OtBu)L-OtBu
Ratio Desired Product vs. Substrate (% area) [2, 8]: 100/0

Cbz-VVK(Boc)L-OtBu
Ratio Desired Product vs. Substrate (% area) [2, 8]: 100/0

Cbz-VVR(Pbf)L-OtBu
Ratio endopeptidase Impurity vs. Desired Product (% area), impurity H-X-Leu-OH ([2]; 24 h): 1/99 (H-X-Leu-OH) | Ratio Desired Product vs. Substrate (% area) [2, 8]: 100/0

Cbz-VVRL-OtBu
Ratio Desired Product vs. Substrate (% area) ([2]; 6 h): 100/0 ^1)

Cbz-VVVL-OtBu
Ratio Desired Product vs. Substrate (% area) ([2]; 6 h): 100/0 ^1) | Ratio Desired Product vs. Substrate (% area) [2, 9]: 100/0 ^1) | Ratio Desired Product vs. Substrate (% area) [2, 8]: 100/0

Cbz-VVW(Boc)L-OtBu
Ratio Desired Product vs. Substrate (% area) [2, 10]: 3/97 | Ratio Desired Product vs. Substrate (% area) [2, 8]: 100/0

Cbz-Val-Ala-OtBu
Product/Substrate (% area) [3]: 100/0 | Product vs. Substrate (% area), Alcalase CLEA [4]: 100/0 | Product vs. Substrate (% area), Subtilisin A [5]: 100/0

Cbz-Val-Asn-OtBu
Product vs. Substrate (% area), Alcalase CLEA [4]: 100/0

Cbz-Val-Gln-OtBu
Product vs. Substrate (% area), Alcalase CLEA [4]: 100/0 | Product vs. Substrate (% area), Subtilisin A [5]: 100/0

Cbz-Val-Ile-OtBu
Product vs. Substrate (% area), Alcalase CLEA [4]: traces of product | Product vs. Substrate (% area), Subtilisin A [5]: 0/100

Cbz-Val-Leu-OtBu
Product vs. Substrate (% area), Alcalase CLEA [4]: 98/2 | Product vs. Substrate (% area), Subtilisin A [5]: 100/0 | Product vs. Substrate (% area) ([6]; 2.5 mg enzyme): 100/0 | Product vs. Substrate (% area) ([6]; 5 mg enzyme): 100/0

Cbz-Val-Met-OtBu
Product vs. Substrate (% area), Subtilisin A [5]: 100/0

Cbz-Val-Pro-OtBu
Product vs. Substrate (% area), Alcalase CLEA [4]: 0/100 | Product vs. Substrate (% area), Subtilisin A [5]: 0/100

Cbz-Val-Ser-OtBu
Product vs. Substrate (% area), Subtilisin A [5]: 100/0

Cbz-Val-Thr(tBu)-OtBu
Product vs. Substrate (% area), Alcalase CLEA [4]: 0/100 | Product vs. Substrate (% area), Subtilisin A [5]: 0/100

Cbz-Val-Trp-Leu-OtBu
endopeptidase-related impurities in the final compound (HPLC and LC/MS) [7]: No endopeptidase-related impurities were identified

Cbz-Val-[His(Trt)]-OtBu
Product vs. Substrate (% area), Alcalase CLEA [4]: 0/100 | Product vs. Substrate (% area), Subtilisin A [5]: 0/100

Z-Val-Val-Ala-Leu-OBu^t ({code Z}-VVAL-OtBu; reading uncertain; also: printed as Z-Val-Val-Ala-Leu-OBu^t) [model tetrapeptide Z-Val-Val-X-Leu-OBu^t, X=Ala, tested in mix A]
Ratio Desired Product vs. Substrate (% area) ([2]; 6 h): 100/0 ^1)

Z-Val-Val-Asn-Leu-OBu^t ({code Z}-VVNL-OtBu; reading uncertain; also: printed as Z-Val-Val-Asn-Leu-OBu^t) [model tetrapeptide Z-Val-Val-X-Leu-OBu^t, X=Asn, tested in mix B]
Ratio Desired Product vs. Substrate (% area) [2, 10]: 100/0 | Ratio Desired Product vs. Substrate (% area) ([2]; 6 h): 100/0 | Ratio Desired Product vs. Substrate (% area) [2, 9]: 100/0 | Ratio Desired Product vs. Substrate (% area) [2, 8]: 100/0

Z-Val-Val-Gln-Leu-OBu^t ({code Z}-VVQL-OtBu; reading uncertain; also: printed as Z-Val-Val-Gln-Leu-OBu^t) [model tetrapeptide Z-Val-Val-X-Leu-OBu^t, X=Gln, tested in mix A]
Ratio Desired Product vs. Substrate (% area) ([2]; 6 h): 100/0 ^1)

Z-Val-Val-Leu-Leu-OBu^t ({code Z}-VVLL-OtBu; reading uncertain; also: printed as Z-Val-Val-Leu-Leu-OBu^t) [model tetrapeptide Z-Val-Val-X-Leu-OBu^t, X=Leu, tested in mix A]
Ratio Desired Product vs. Substrate (% area) ([2]; 6 h): 100/0 ^1)

Z-Val-Val-Met-Leu-OBu^t ({code Z}-VVML-OtBu; reading uncertain; also: printed as Z-Val-Val-Met-Leu-OBu^t)
Ratio endopeptidase Impurity vs. Desired Product (% area), impurity Z-Val-Val-X-OH ([2]; 24 h): 72/28 (Z-Val-Val-X-OH) | Ratio Desired Product vs. Substrate (% area) [2, 9]: 100/0

Z-Val-Val-Phe-Leu-OBu^t ({code Z}-VVFL-OtBu; reading uncertain; also: printed as Z-Val-Val-Phe-Leu-OBu^t) [model tetrapeptide Z-Val-Val-X-Leu-OBu^t, X=Phe, tested in mix B]
Ratio Desired Product vs. Substrate (% area) [2, 10]: 23/77 | Ratio Desired Product vs. Substrate (% area) ([2]; 6 h): 81/19 | Ratio Desired Product vs. Substrate (% area) [2, 8]: 100/0

Z-Val-Val-Ser-Leu-OBu^t ({code Z}-VVSL-OtBu; reading uncertain; also: printed as Z-Val-Val-Ser-Leu-OBu^t) [model tetrapeptide Z-Val-Val-X-Leu-OBu^t, X=Ser, tested in mix A]
Ratio Desired Product vs. Substrate (% area) ([2]; 6 h): 100/0 ^1)

Z-Val-Val-Trp-Leu-OBu^t ({code Z}-VVWL-OtBu; reading uncertain; also: printed as Z-Val-Val-Trp-Leu-OBu^t) [model tetrapeptide Z-Val-Val-X-Leu-OBu^t, X=Trp, tested in mix D]
Ratio endopeptidase Impurity vs. Desired Product (% area), impurity H-X-Leu-OH ([2]; 24 h): 2/98 (H-X-Leu-OH) | Ratio endopeptidase Impurity vs. Desired Product (% area), impurity H-X-Leu-OH ([2]; 48 h): 6/94 (H-X-Leu-OH)

Z-Val-Val-Tyr-Leu-OBu^t ({code Z}-VVYL-OtBu; reading uncertain; also: printed as Z-Val-Val-Tyr-Leu-OBu^t) [model tetrapeptide Z-Val-Val-X-Leu-OBu^t, X=Tyr, tested in mix B]
Ratio Desired Product vs. Substrate (% area) [2, 8]: 100/0
